pIC50: −log10 of the molar value.

Broadly, the pIC50 is the negative decadic logarithm of the IC50, by convention in mol/L. A higher pIC50 goes with a low IC50.

The test system of one test is MONO-MAC-6. The test can be described thus: Antiproliferative activity against human MONO-MAC-6 cells. It is filed as functional, cell-based.
The target in test [1] is T1, Alpha-ketoglutarate-dependent dioxygenase FTO (Homo sapiens, UniProt Q9C0B1). The test can be described thus: Inhibition of FTO (unknown origin) mediated m6A methylation by HPLC analysis.
T1 sequence (Q9C0B1 whole entry): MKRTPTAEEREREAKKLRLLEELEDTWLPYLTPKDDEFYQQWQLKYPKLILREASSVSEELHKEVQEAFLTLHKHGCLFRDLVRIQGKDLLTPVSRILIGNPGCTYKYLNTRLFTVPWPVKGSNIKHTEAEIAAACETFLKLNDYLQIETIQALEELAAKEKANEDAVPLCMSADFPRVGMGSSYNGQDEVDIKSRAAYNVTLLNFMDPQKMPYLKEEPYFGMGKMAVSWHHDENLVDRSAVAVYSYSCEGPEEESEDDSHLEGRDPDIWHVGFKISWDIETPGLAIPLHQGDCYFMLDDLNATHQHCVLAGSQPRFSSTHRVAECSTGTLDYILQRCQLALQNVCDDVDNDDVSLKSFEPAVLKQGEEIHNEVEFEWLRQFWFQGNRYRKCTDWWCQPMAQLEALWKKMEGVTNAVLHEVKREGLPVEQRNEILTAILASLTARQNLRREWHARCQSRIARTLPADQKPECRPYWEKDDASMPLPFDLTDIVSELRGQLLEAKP
Test [2] deals with T1, Alpha-ketoglutarate-dependent dioxygenase FTO. The test is described as follows: Inhibition of full length human FTO expressed in Escherichia coli BL21(DE3) rosetta by HPLC analysis.
Test [3] shares this target. The test can be described thus: Displacement of dm6A-containing ssDNA from truncated N-terminal his-tagged human FTO (31 residues) mediated demethylation activity expressed in Escherichia coli BL21(DE3) using ssDNA (5'-ATTGTCA(dm6A)CAGCAGA-FAM-3') as substrate by fluorescence polarization assay. Background: In fluorescence polarisation assays a small probe gives low polarisation when free and higher when bound to something large.

The target is the same in test [4].
Description: Inhibition of FTO (unknown origin) (31 to 505 residues) by LC/MS analysis

Turning to `Cc1noc(C)c1-c1cc(Cl)c(Nc2ccccc2C(=O)NO)c(Cl)c1`, the negative logarithm of the IC50 (pIC50) in the test with MONO-MAC-6 is 6.10; in test [1], 5.59.

`O=C(O)c1ccnc(C(=O)NS(=O)(=O)c2ccc(C(F)(F)F)cc2)c1`: the negative logarithm of the IC50 (pIC50) in test [2] is 5.59.

With `Cc1ccc(Cl)c(Nc2ccccc2C(=O)O)c1Cl` [MECLOFENAMIC ACID], the pIC50 in test [3] was 4.76.

In turn, `C[C@@H]1C[C@H]2O[C@@H]2/C=C\C=C\C(=O)Cc2c(Cl)c(O)cc(O)c2C(=O)O1` [RADICICOL] gave a negative-log IC50 (pIC50) in test [4] of 4.79.
